{
  "source": "patent US20150296790A1",
  "about": "“SILICON-CONTAINING COMPOUND AQUEOUS SOLUTION AND ANTIBACTERIAL/ANTIVIRAL AGENT INCLUDING SAID SOLUTION” (JEX CO., LTD., priority 2012, published 2015)",
  "key": {"[1]": {"assay": "Stability over time (three-month storage tests, visual)", "type": "physicochemical", "conditions": "purified water"}, "Deodorant activity test": {"assay": "Deodorant activity test", "conditions": "γ-CD 1 w/w %, Compound E 0.1 w/w %", "method": "The predetermined samples shown in Tables 1 to 5 were tested for deodorant activity against ammonia, acetic acid, isovaleric acid, and nonenal. Now, the test, including the test conditions, will be specifically described. Test Items: The deodorant test and the test to gain SEK mark approval for textiles according to the certification standards of the Japan Textile Evaluation Technology Council (4 ml of sample liquid was applied to a cotton fabric and dried for a period of from 30 minutes to 1 hour. Then, the concentration of the gas volatilized from the cotton fabric was measured by a detection tube and gas chromatography) Odor tested: Ammonia, acetic acid, isovaleric acid, and nonenal Samples used: Sample 1): Compound E 0.1%+γ-CD 1%+purified water 98.9% • Sample 2): Compound E 0.1%+γ-CD 5%+purified water 94.9% Initial gas concentration: Ammonia: 100 ppm (100 cm^2) • Acetic acid: 50 ppm (100 cm^2) • Isovaleric acid: about 38 ppm (48 cm^2) • Nonenal: about 14 ppm (48 cm^2)"}},
  "data": [
    {"smiles": "CCCCCCCCCCCCCCCCCC[N+](C)(C)CCC[Si](OCC)(OCC)OCC.[Cl-]", "note": "[Compound E, Octadecyl dimethyl(3-triethoxysilylpropyl)ammonium chloride]", "values": [
      {"measurement": "Change Over 3 Months (Accelerated Test at 40° C., Cold Test at 5° C., Ambient Test at 25° C.)", "setting": "[1]; α-CD 1 w/w %, Compound E 0.8 w/w %", "result": "Clear but some precipitation was observed"},
      {"measurement": "Change Over 3 Months (Accelerated Test at 40° C., Cold Test at 5° C., Ambient Test at 25° C.)", "setting": "[1]; α-CD 1 w/w %, Compound E 0.9 w/w %", "result": "Clear but some precipitation was observed"},
      {"measurement": "Change Over 3 Months (Accelerated Test at 40° C., Cold Test at 5° C., Ambient Test at 25° C.)", "setting": "[1]; α-CD 1 w/w %, Compound E 1 w/w %", "result": "Clear but some precipitation was observed"},
      {"measurement": "Change Over 3 Months (Accelerated Test at 40° C., Cold Test at 5° C., Ambient Test at 25° C.)", "setting": "[1]; α-CD 7 w/w %, Compound E 0.1 w/w %", "result": "Stable"},
      {"measurement": "Change Over 3 Months (Accelerated Test at 40° C., Cold Test at 5° C., Ambient Test at 25° C.)", "setting": "[1]; α-CD 7 w/w %, Compound E 0.2 w/w %", "result": "Stable"},
      {"measurement": "Change Over 3 Months (Accelerated Test at 40° C., Cold Test at 5° C., Ambient Test at 25° C.)", "setting": "[1]; α-CD 7 w/w %, Compound E 0.3 w/w %", "result": "Stable"},
      {"measurement": "Change Over 3 Months (Accelerated Test at 40° C., Cold Test at 5° C., Ambient Test at 25° C.)", "setting": "[1]; α-CD 7 w/w %, Compound E 0.4 w/w %", "result": "Stable"},
      {"measurement": "Change Over 3 Months (Accelerated Test at 40° C., Cold Test at 5° C., Ambient Test at 25° C.)", "setting": "[1]; α-CD 7 w/w %, Compound E 0.5 w/w %", "result": "Stable"},
      {"measurement": "Change Over 3 Months (Accelerated Test at 40° C., Cold Test at 5° C., Ambient Test at 25° C.)", "setting": "[1]; α-CD 7 w/w %, Compound E 0.6 w/w %", "result": "Stable"},
      {"measurement": "Change Over 3 Months (Accelerated Test at 40° C., Cold Test at 5° C., Ambient Test at 25° C.)", "setting": "[1]; α-CD 7 w/w %, Compound E 0.7 w/w %", "result": "Stable"},
      {"measurement": "Change Over 3 Months (Accelerated Test at 40° C., Cold Test at 5° C., Ambient Test at 25° C.)", "setting": "[1]; α-CD 7 w/w %, Compound E 0.8 w/w %", "result": "Stable"},
      {"measurement": "Change Over 3 Months (Accelerated Test at 40° C., Cold Test at 5° C., Ambient Test at 25° C.)", "setting": "[1]; α-CD 7 w/w %, Compound E 0.9 w/w %", "result": "Stable"},
      {"measurement": "Change Over 3 Months (Accelerated Test at 40° C., Cold Test at 5° C., Ambient Test at 25° C.)", "setting": "[1]; α-CD 7 w/w %, Compound E 1 w/w %", "result": "Stable"},
      {"measurement": "Change Over 3 Months (Accelerated Test at 40° C., Cold Test at 5° C., Ambient Test at 25° C.)", "setting": "[1]; β-CD 1 w/w %, Compound E 0.1 w/w %", "result": "Not changed"},
      {"measurement": "Change Over 3 Months (Accelerated Test at 40° C., Cold Test at 5° C., Ambient Test at 25° C.)", "setting": "[1]; β-CD 1 w/w %, Compound E 0.2 w/w %", "result": "Not changed"},
      {"measurement": "Change Over 3 Months (Accelerated Test at 40° C., Cold Test at 5° C., Ambient Test at 25° C.)", "setting": "[1]; β-CD 1 w/w %, Compound E 0.3 w/w %", "result": "Not changed"},
      {"measurement": "Change Over 3 Months (Accelerated Test at 40° C., Cold Test at 5° C., Ambient Test at 25° C.)", "setting": "[1]; β-CD 1 w/w %, Compound E 0.4 w/w %", "result": "Not changed"},
      {"measurement": "Change Over 3 Months (Accelerated Test at 40° C., Cold Test at 5° C., Ambient Test at 25° C.)", "setting": "[1]; β-CD 1 w/w %, Compound E 0.5 w/w %", "result": "Not changed"},
      {"measurement": "Change Over 3 Months (Accelerated Test at 40° C., Cold Test at 5° C., Ambient Test at 25° C.)", "setting": "[1]; β-CD 1 w/w %, Compound E 0.6 w/w %", "result": "Not changed"},
      {"measurement": "Change Over 3 Months (Accelerated Test at 40° C., Cold Test at 5° C., Ambient Test at 25° C.)", "setting": "[1]; β-CD 1 w/w %, Compound E 0.7 w/w %", "result": "Not changed"},
      {"measurement": "Change Over 3 Months (Accelerated Test at 40° C., Cold Test at 5° C., Ambient Test at 25° C.)", "setting": "[1]; β-CD 1 w/w %, Compound E 0.8 w/w %", "result": "Not changed"},
      {"measurement": "Change Over 3 Months (Accelerated Test at 40° C., Cold Test at 5° C., Ambient Test at 25° C.)", "setting": "[1]; β-CD 1 w/w %, Compound E 0.9 w/w %", "result": "Not changed"},
      {"measurement": "Change Over 3 Months (Accelerated Test at 40° C., Cold Test at 5° C., Ambient Test at 25° C.)", "setting": "[1]; β-CD 1 w/w %, Compound E 1 w/w %", "result": "Not changed"},
      {"measurement": "Change Over 3 Months (Accelerated Test at 40° C., Cold Test at 5° C., Ambient Test at 25° C.)", "setting": "[1]; γ-CD 10 w/w %, Compound E 0.1 w/w %", "result": "Precipitated"},
      {"measurement": "Change Over 3 Months (Accelerated Test at 40° C., Cold Test at 5° C., Ambient Test at 25° C.)", "setting": "[1]; γ-CD 10 w/w %, Compound E 0.2 w/w %", "result": "Precipitated"},
      {"measurement": "Change Over 3 Months (Accelerated Test at 40° C., Cold Test at 5° C., Ambient Test at 25° C.)", "setting": "[1]; γ-CD 10 w/w %, Compound E 0.3 w/w %", "result": "Precipitated"},
      {"measurement": "Change Over 3 Months (Accelerated Test at 40° C., Cold Test at 5° C., Ambient Test at 25° C.)", "setting": "[1]; γ-CD 10 w/w %, Compound E 0.4 w/w %", "result": "Precipitated"},
      {"measurement": "Change Over 3 Months (Accelerated Test at 40° C., Cold Test at 5° C., Ambient Test at 25° C.)", "setting": "[1]; γ-CD 10 w/w %, Compound E 0.5 w/w %", "result": "Precipitated"},
      {"measurement": "Change Over 3 Months (Accelerated Test at 40° C., Cold Test at 5° C., Ambient Test at 25° C.)", "setting": "[1]; γ-CD 10 w/w %, Compound E 0.6 w/w %", "result": "Precipitated"},
      {"measurement": "Change Over 3 Months (Accelerated Test at 40° C., Cold Test at 5° C., Ambient Test at 25° C.)", "setting": "[1]; γ-CD 10 w/w %, Compound E 0.7 w/w %", "result": "Precipitated"},
      {"measurement": "Change Over 3 Months (Accelerated Test at 40° C., Cold Test at 5° C., Ambient Test at 25° C.)", "setting": "[1]; γ-CD 10 w/w %, Compound E 0.8 w/w %", "result": "Precipitated"},
      {"measurement": "Change Over 3 Months (Accelerated Test at 40° C., Cold Test at 5° C., Ambient Test at 25° C.)", "setting": "[1]; γ-CD 10 w/w %, Compound E 0.9 w/w %", "result": "Precipitated"},
      {"measurement": "Change Over 3 Months (Accelerated Test at 40° C., Cold Test at 5° C., Ambient Test at 25° C.)", "setting": "[1]; γ-CD 10 w/w %, Compound E 1 w/w %", "result": "Precipitated"},
      {"measurement": "Deodorant Effect: Deodorant Activity Test (by Detection Tube and Gas Chromatography)", "setting": "Deodorant activity test", "result": "Confirmed"}
    ]}
  ]
}
